Data: publication PMC3567211 (2012)

Test system: TGGCTT (5'-biotin labeled hairpin DNA) (DNA, hairpin) CCTTGGCTTCTTTTGAAGCCAAGG
Assay: SPR, global kinetic 1:1 fit
Details: 50 mM Na+ (NaCl); 10 mM HEPES, 1 mM EDTA, 0.05% P20, pH 7.4, 25 °C

KA: 37 ± 7 × 10^8 M^-1
SMILES: CN(C)CCCNC(=O)CCNC(=O)c1cc(NC(=O)c2cc(NC(=O)c3nc(NC(=O)c4cc(NC(=O)CCCNC(=O)c5cc(NC(=O)c6cc(NC(=O)c7nc(NC(=O)c8nccn8C)cn7C)cn6C)cn5C)cn4C)cn3C)cn2C)cn1C
